According to patent US20240165182A1, “METHOD OF EXTRACTION OF PROANTHOCYANIDINS COMPOUND FROM PINE BARK OF PINUS ROXBURGHII” (AMBE PHYTOEXTRACTS PVT. LTD., priority 2022, published 2024):

Assays:
[1] = Total antioxidant capacity (TAC) assay, sulphuric acid/sodium phosphate/ammonium molybdate reagent; conditions: concentration 1000 μg/ml, 90 minutes at 95° C.
Description: The assay was performed to evaluate the total antioxidant capacity of a Pinorox® i.e. Pine bark extract from Pinus roxburghii against the standard ascorbic acid for in-vitro study. Antioxidants are compounds that are capable of inhibiting the process of oxidation that occurs under the influence of atmospheric oxygen or reactive oxygen species. The antioxidants are employed for stabilizing polymeric products, petrochemicals, cosmetics and food stuff along with pharmaceuticals. Antioxidants are involved in defense mechanisms of an organism against the associated pathologies in order to attack the free radicals. The test is carried out to check the total antioxidant capacity of a pine bark extract in order to avoid nutritional loss. The total antioxidant capacity of Pinorox® i.e. Pine bark extract from Pinus roxburghii was found out to be 756.993±0.150 mM equivalent of the ascorbic acid having 1000±0.027 mM at 1000 μg/mL. Pine bark extract of 5.5 mg each/ascorbic acid were subjected to dissolve in 0.5 ml of DMSO (Dimethyl sulfoxide) in a separate container. 0.244 ml of 0.6 M sulphuric acid was added to a 15 ml of distilled water. […] The absorbance was recorded at […] via ELISA (enzyme-linked immunosorbent assay) reader and the values were recorded. The total activity of antioxidant was expressed as mM which is equivalent of ascorbic acid. […]

[2] = tested on: Human keratinocytes (HaCaT); assay: GSH modulation assay against hydrogen peroxide induced oxidative stress (GSH ELISA); assay type: cell-based; conditions: H2O2 500 μm 3 hours, tested concentration 17.61 μg/ml (positive control)
Description: For conducting the analysis, 10 mg of Pine bark extract from Pinus roxburghii (Pinorox®) was dissolved in a DMSO (Dimethyl sulfoxide) solution. The volume of the test solution was made up using DMEM-HG (Dulbecco's Modified eagle Medium) and supplemented with 2% inactivated FBS (Fetal bovine serum) to acquire a solution with concentration of 10 mg/ml. The test solution was further proceeded with sterilization using syringe filtration. For carrying out the cytotoxic analysis, a two-fold serial dilution was prepared. The cell line of Human keratinocytes (HaCaT) was obtained from Addex Bio, USA and were cultured in DMEM-HG supplemented media with 10% inactivated fetal bovine serum (FBS), penicillin (100 IU/mL), streptomycin ([…]) and amphotericin B (5 μg/mL) in a wet atmosphere of 5% CO2 at a temperature of 37° C. until confluent. […] The samples were analyzed to estimate the levels of GSH using Elab science GSH ELISA kit by following the manufacturer's instruction. […]

## O=C1O[C@H]([C@@H](O)CO)C(O)=C1O [Ascorbic acid]
[1]
  TAC (total antioxidant capacity): 1000 ± 0.027 mM equivalent of ascorbic acid
[1]; listed as ascorbic acid
  TAC (total antioxidant capacity): 1000±0.027 mM equivalent of ascorbic acid
[2]
  % Increase in GSH level over hydrogen peroxide control: 95.59±0.03%
